Data taken from patent publication US20190201541A1, “ANTI-CD22 ANTIBODY-MAYTANSINE CONJUGATES, COMBINATIONS, AND METHODS OF USE THEREOF” (Triphase Accelerator U.S. Corporation, priority 2017, published 2019).

How the values were obtained:
Format in all cases: cell-based
[1] = system: Ramos cells; assay: In vitro cytotoxicity, Cell Titer-Glo, 5 d; settings: Homo sapiens, 120 h, 5 d incubation, read-out: IC50 against Ramos cells
Experimental: (§1) The CD22-positive B-cell lymphoma cell lines, Ramos and WSU-DLCL2, were obtained from the ATCC and DSMZ cell banks, respectively. The cells were maintained in RPMI-1640 medium (Cellgro, Manassas, Va.) supplemented with 10% fetal bovine serum (Invitrogen, Grand Island, N.Y.) and Glutamax (Invitrogen). 24 h prior to plating, cells were passaged to ensure log-phase growth. On the day of plating, 5000 cells/well were seeded onto 96-well plates in 90 μL normal growth medium supplemented with […] and 10 µg/mL streptomycin (Cellgro). Cells were treated at various concentrations with 10 μL of diluted analytes, and the plates were incubated at 37° C. in an atmosphere of 5% CO2. After 5 d, 100 μL/well of Cell Titer-Glo reagent (Promega, Madison, Wis.) was added, and luminescence was measured using a Molecular Devices SpectraMax M5 plate reader. GraphPad Prism software was used for data analysis.

[2] = system: WSU-DLCL2 cells; assay: In vitro cytotoxicity, Cell Titer-Glo, 5 d; settings: Homo sapiens, WSUDLCL2, 120 h; 5 d incubation; read-out: IC50 against WSU-DLCL2 cells
Experimental: as §1

[3] = system: Ramos cells engineered to express MDR1 (MDR1+); assay: In vitro cytotoxicity assay on MDR1-expressing cells; settings: versus wild-type cells
Experimental: (§2) MDR1 (ABCB1) cDNA was obtained from Sino Biological and cloned into a pEF plasmid with a hygromycin selection marker. An AMAXA Nucleofector™ instrument was used to electroporate Ramos (ATCC CRL-1923) and WSU-DLCL2 (DSMZ ACC 575) cells according to the manufacturer's instructions. After selection with hygromycin (Invitrogen 10687010), the pools were enriched with paclitaxel treatment (25 nM for up to 10 days) to further select cells with functional MDR1. The resulting cells were maintained under hygromycin selection in RPMI (Gibco 21870-092) supplemented with 10% fetal bovine serum (FBS) and 1× GlutaMax (Gibco 35050-079).
(§3) Cell lines were plated in 96-well plates (Costar 3610) at a density of 5×10^4 cells/well in 100 μL of growth media and allowed to rest for 5 h. Serial dilution of test samples was performed in RPMI at 6× the final concentration and 20 μL was added to the cells. After incubation at 37° C. with 5% CO2 for 5 days, viability was measured using a Promega CellTiter 96® AQueous One Solution Cell Proliferation Assay (G3581) according to the manufacturer's instructions. GI50 curves were calculated in GraphPad Prism using the ADC's drug-to-antibody ratio (DAR) value to normalize the dose to the payload concentration.

[4] = system: WSU-DLCL2 cells engineered to express MDR1 (MDR1+); assay: as above
Experimental: as §2, §3

Compound: COc1cc2cc(c1Cl)N(C)C(=O)C[C@H](OC(=O)[C@H](C)N(C)C(C)=O)[C@]1(C)O[C@H]1[C@H](C)[C@@H]1C[C@@](O)(NC(=O)O1)[C@H](OC)/C=C/C=C(\C)C2 [free maytansine, maytansine]
- IC50 [1]: 0.04 nM
- IC50 [2]: 0.086 nM
- loss of efficacy in MDR1+ Ramos cells [3]: ~10 fold
- potency in MDR1+ WSU-DLCL2 cells on cotreatment with cyclosporin (MDR1 inhibitor) ([4]; cyclosporin cotreatment): restored the original potency
- loss of efficacy in MDR1+ WSU-DLCL2 cells ([4]; versus wild-type cells): ~10 fold
